The numbers were not newly measured in patent publication US20260020560A1, “AG[…] DIHYDROJASMONATE COMPOSITIONS” (priority 2022, published 2026), which cites them from elsewhere.

For `O=S(=O)(O)CCN1CCN(CCO)CC1` [HEPES, 4-(2-hydroxyethyl)-1-piperazineethanesulfonic acid], the “pKa at 25° C.” value is listed as 7.48.

As for `O=S(=O)(O)CC(O)CNC(CO)(CO)CO` (centres unmarked) [TAPSO, 3-[N-tris(hydroxymethyl)methyl-amino]-2-hydroxypropanesulfonic acid], the “pKa at 25° C.” value is 7.635.
